Measured values as given in patent US20050208597A1, “Microarray analysis of post-translational modifications” (The Board of Trustees of the Leland Stanford Junior …, priority 2004, published 2005).

How the values were obtained:
Format in all cases: cell-based
MEK1/2 phosphorylation = test: RPP microarray, phospho-specific antibody probing of cell lysates
Description: (§1) FIG. 2. Applications of reverse-phase protein microarrays. (A) Kinetics of PLCγ1 (Y783) phosphorylation in Jurkat T cells following stimulation with anti-CD3 (pink triangle), anti-CD28 (green circle), both antibodies (blue squares), or isotype control antibodies (empty squares) over 30 minutes. Left panel: Phosphorylation kinetics unadjusted for total PLCγ1 levels. Middle Panel: Total PLCγ1 levels. Right panel: Ratiometric data on phosphorylation kinetics (phospho-PLCγ1/total PLCγ1). See text for details. (B) Phosphorylation kinetics of four signaling proteins (PLCγ1, Akt, MEK1/2, and p44/42 MAPK) in wildtype Jurkat T cells (black square) and J.gamma1, a mutant Jurkat line deficient in PLCγ1 (empty circle), stimulated with both anti-CD3 and CD28 antibodies. […] Jurkats T cells were stimulated with either anti-CD3 or anti-CD28 antibodies in the presence of one of three kinase inhibitors (see text for details). Lysates were collected after 10 minutes of stimulation, spotted on slides, and probed with four phospho-specific antibodies. Representative spots of p-p44/42 MAPK and p-MEK1/2 are shown for anti-CD3 stimulated cells and p-Akt (Ser473) and p-PDK1 for anti-CD28 treated cells.
(§2) To fabricate the protein microarrays, we used a contact-printing robotic microarrayer to deliver nanoliter (˜6 nl) volumes of whole cell lysates onto nitrocellulose-coated slides. FAST slides (Schleicher and Schuell BioSciences, Dassel, Germany). Depending on the experimental setup, two different formats of FAST slides were used. In experiments where the number of samples was greater than the number of analytes measured, slides with a single pad capable of holding over 2000 lysate spots were used. In our screening experiments where the number of analytes exceeds the number of samples, we used slides carrying eight sectored pads or subarrays for multiplex analysis. Under our current configuration, a maximum of 24 spots can be fitted onto each individual pad (6 mm×6 mm).
(§3) For small-scale experiments, we used a precision 8-pin manual microarrayer system (Microcaster system from Schleicher & Schuell). […] The protein lysates dried within seconds of printing and were tightly bound to the nitrocellulose platform via electrostatic interactions.

[1] = test system: p44/42 MAPK phosphorylation; test: as above
Description: as §1, §2, §3

[2] = test system: Akt (Ser473) phosphorylation; test: as above
Description: as §1, §2, §3

PDK1 phosphorylation = test: as above; conditions: Jurkat cells stimulated through CD28 in the presence of the inhibitor; lysates after 10 minutes; one of the 'other 3 kinases' (named)
Description: as §1, §2, §3

β-actin = test: RPP microarray, phosphorylation-state independent antibody; conditions: PMA treated vs untreated Jurkat T cells
Description: (§4) FIG. 1. Protein microarray performance characteristics and validation. (A) Four purified antigens spotted in triplicate over six 2-fold dilutions starting at 900 pg per spot and probed with their corresponding antibodies. (B) Quantitative comparison between Western immunoblotting and protein microarray for measuring Hsp70 induction in heat-shocked Jurkat T cells. (C) Detection of changes in phosphorylation in signaling proteins in PMA treated vs. untreated Jurkat T cells. Corresponding immunoblots of the same samples are shown on the right. Antibodies specific for p44/42 MAPK, MEK1/2 and Akt are phosphorylation-state dependent. Antibodies for SLP-76 and β-actin are not dependent on phosphorylation.
(§5) To fabricate the protein microarrays, we used a contact-printing robotic microarrayer to deliver nanoliter (˜6 nl) volumes of whole cell lysates onto nitrocellulose-coated slides. […] In experiments where the number of samples was greater than the number of analytes measured, slides with a single pad capable of holding over 2000 lysate spots were used. […]
(§6) For small-scale experiments, we used a precision 8-pin manual microarrayer system (Microcaster system from Schleicher & Schuell). The resulting features measured approximately 500 μm in diameter. […] Bound primary antibodies were detected with a horseradish peroxidase (HRP)-linked secondary antibody. […]

SLP-76 = test: as above; conditions: PMA treated vs untreated Jurkat T cells
Description: as §4, §5, §6

[3] = Jurkat cells stimulated through CD3 in the presence of the inhibitor, lysates after 10 minutes
[4] = PMA treated vs untreated Jurkat T cells

## N#CC(=C(/N)Sc1ccccc1N)/C(C#N)=C(\N)Sc1ccccc1N [U0126]
MEK1/2 phosphorylation; [3]
  phosphorylation of MEK1/2: had no effect
[1]; [3]
  phosphorylation of p44/42 MAPK: specifically blocked
[2]; Jurkat cells stimulated through CD28 in the presence of the inhibitor, lysates after 10 minutes
  phosphorylation of Akt (Ser473): had no effect
PDK1 phosphorylation
  phosphorylation of PDK1: had no effect

## CCCCCCCCCCCCCC(=O)O[C@@H]1[C@@H](C)[C@@]2(O)[C@@H](C=C(CO)C[C@]3(O)C(=O)C(C)=C[C@@H]23)[C@@H]2C(C)(C)[C@]12OC(C)=O [PMA, phorbol 12-myristate 13-acetate]
MEK1/2 phosphorylation; [4]
  phosphorylation of MEK1/2: rapid phosphorylation
[1]; [4]
  phosphorylation of p44/42 MAPK: rapid phosphorylation
[2]; [4]
  phosphorylation of Akt/PKB: not significantly affected
β-actin
  abundance of β-actin: no changes
SLP-76
  abundance of SLP-76: no changes
